{
  "source": "patent US20210369721A1",
  "about": "“SUBLINGUAL FORMULATION FOR HYPOTENSION AND SYNCOPE” (priority 2020, published 2021)",
  "key": {"normal, healthy adults": {"tested_on": "normal, healthy adults", "experiment": "Phase I CPC sublingual gel: blood pressure and heart rate", "assay_type": "in vivo, human", "details": "15-120 minutes", "experimental": "Study Methods: The design was an open label, phase I, dose escalation, pharmacokinetic study of a novel gel formulation of capsaicin, phenylephrine, and caffeine administered sublingually to normal, healthy adults.\nDosing and Administration: The product was expressed as fast as feasible from the oral syringe sublingually. The subject was asked to have the gel reside under the tongue for 1 minute before it was swallowed and the mouth was rinsed with water. Multiple rinses were allowed.\nOf the three active components of the sublingual dosage, the dose of phenylephrine was the focus of dose escalation.\nStudy Drug Administration: The subject were asked to sit in a chair that allowed access to their mouth and subsequent blood sampling and continuous BP and HR monitoring. After 15-minute rest, vital signs were taken pre-dose, and SBP had to be ≤130 mmHg in order for dose to be given. If SBP>130 mmHg, the blood pressure was checked again in 15 minutes. If the repeat measurement had SBP≤130 mmHg, the first dose of CPC was given.\nThe study nurse delivered the appropriate dose to the subject using an oral syringe sublingually. The subject allowed the gel to reside under the tongue for 1 minute before the gel was swallowed and the mouth was rinsed with water that was swallowed. Multiple rinses were allowed as was water ad lib. […]"}, "clinical": {"experiment": "clinical", "details": "human, in vivo", "experimental": "Pharmacokinetic Sampling: Blood samples were collected via the venous catheter with appropriate pre- and post-sample flushing. If the indwelling venous catheter patency was lost, the phlebotomist or nurse attempted to replace it, if possible. Separate needle sticks could be done for the blood collection.\nSamples were collected in 6 mL heparinized tubes at the following time points: Pre-dose, 30 seconds, 1, 2, 5, 15, 30, 45, 60, 90, 120 min, and 3, 4, 6, 8, 12, 24* hours\nThe lithium heparin tube and 1 K2EDTA tube (capsaicin sample) were immediately placed on ice or refrigerated. […] All blood samples were centrifuged as soon as possible after clotting in a refrigerated centrifuge. The plasma from each tube was equally distributed between 2 polypropylene tubes, labeled and promptly stored at −80° C. until thawed for analysis."}, "[1]": {"tested_on": "impending syncope (VVS) patients", "details": "cited from earlier work"}, "[2]": {"details": "cited from earlier work"}, "[3]": {"tested_on": "healthy subjects and 1 patient with a history of VVS", "experiment": "Study 2: Capsaicin alone, tilt table testing", "assay_type": "in vivo, human", "experimental": "In a second study, we tested the effect of Capsaicin alone (50 μL Capsaicin 0.5%) on HR and BP in 3 healthy subjects (1 woman and 2 men mean age 35±18 years) and in 1 patient with a history of VVS during tilt table testing (Table 1)."}, "VR1receptor": {"molecular_target": "VR1receptor", "details": "micro molar range; cited from earlier work"}, "impending VVS": {"tested_on": "impending VVS", "details": "cited from earlier work"}, "[4]": {"experiment": "Caffeine plasma level after sublingual caffeine+capsaicin in ethanol", "assay_type": "in vivo, human", "details": "5 cases; sublingual caffeine 200 mg + capsaicin in ethanol"}, "blood donors": {"tested_on": "blood donors", "details": "125 or 250 mg; 95% CI 0.21-0.85; p=0.02; cited from earlier work"}, "A2 adenosine receptor": {"tested_on": "A2 adenosine receptor", "details": "cited from earlier work"}, "[5]": {"details": "single dose of 200-250 mg, cited from earlier work"}, "[6]": {"details": "healthy subjects, individual subjects"}},
  "note": "Values joined by “and” are separate entries in the source; they are usually repeats but may differ in a detail not shown here. Equal values may be shown once.",
  "data": [
    {"compound": "CNC[C@H](O)c1cccc(O)c1", "note": "[PE, phenylephrine]", "values": [
      {"measurement": "Speculated contribution of PE to SBP elevation", "setting": "normal, healthy adults", "value": "1-2 mmHg"},
      {"measurement": "PE blood concentration in the current study", "setting": "clinical", "value": "1 to 2", "unit": "ng/mL"},
      {"measurement": "concentration at 15 min", "setting": "clinical", "value": "~1", "unit": "ng/mL"},
      {"measurement": "Effect on vagally-induced bradycardia", "setting": "[1]; in vivo", "value": "unable to counteract the vagally-induced bradycardia"},
      {"measurement": "Effect on blood pressure", "setting": "[1]; intra-atrial bolus 1 mg/1 ml at impending syncope", "value": "immediate marked increase in blood pressure"},
      {"measurement": "Effect on VVS", "setting": "[1]; intra-atrial bolus 1 mg/1 ml", "value": "interrupted VVS in most patients"},
      {"measurement": "Time to effect", "setting": "[1]; mostly", "value": "≤ 20", "unit": "s"},
      {"measurement": "Mean increase in SBP", "setting": "[2]; PE blood concentration of 20 nM, 3 mcg/L or 3 ng/ml", "value": 3, "unit": "mmHg"},
      {"measurement": "Increase in systolic BP, mean", "setting": "[2]; PE concentration of 9 mcg/L", "value": 11, "unit": "mmHg"},
      {"measurement": "Increase in systolic BP, range", "setting": "[2]; PE concentration of 9 mcg/L", "value": "6-20 mmHg"}
    ]},
    {"compound": "COc1cc(CNC(=O)CCCC/C=C/C(C)C)ccc1O", "note": "[Capsaicin, 8-methyl-N-vanillyl-trans 6-nonenamide]", "values": [
      {"measurement": "Symptoms after drug", "setting": "[3]; 1 patient with VVS", "value": "no"},
      {"measurement": "Time of max SBP increase", "setting": "[3]; 1 patient with VVS", "value": 1, "unit": "min"},
      {"measurement": "Max SBP after drug", "setting": "[3]; 1 patient with VVS, pending syncope YES, SBP at time 0 100", "value": 120, "unit": "mmHg"},
      {"measurement": "HR after Drug", "setting": "[3]; 1 patient with VVS, HR at time 0 56", "value": 80, "unit": "bpm"},
      {"measurement": "Start of SBP increase after sublingual administration", "setting": "[3]; 3 healthy subjects", "value": "[…]"},
      {"measurement": "SBP after Capsaicin alone, mean", "setting": "[3]; 3 healthy subjects, from a mean of 120±10 mmHg", "value": "155±5", "unit": "mmHg"},
      {"measurement": "Time of max SBP increase, Mean", "setting": "[3]; Mean of 3 healthy subjects", "value": 1.3, "unit": "min"},
      {"measurement": "HR after Drug, Mean", "setting": "[3]; Mean of 3 healthy subjects, HR at time 0 mean 78", "value": 96, "unit": "bpm"},
      {"measurement": "Max SBP after drug, Mean", "setting": "[3]; Mean of 3 healthy subjects, SBP at time 0 mean 120", "value": 155, "unit": "mmHg"},
      {"measurement": "Max SBP after drug", "setting": "[3]; healthy subjects, Capsaicin alone 50 μL 0.5%, individual subjects", "value": "160 mmHg and 155 mmHg and 150 mmHg"},
      {"measurement": "Effect on SBP", "setting": "[3]; healthy subjects, conclusion", "value": "able to increase SBP"},
      {"measurement": "HR after Drug", "setting": "[3]; [6]", "value": "100 bpm and 104 bpm and 85 bpm"},
      {"measurement": "Symptoms after drug", "setting": "[3]; [6]", "value": "no"},
      {"measurement": "Time of max SBP increase", "setting": "[3]; [6]", "value": "1 min (2×) and 2 min"},
      {"measurement": "Effect on loss of consciousness", "setting": "[3]; one VVS patient, conclusion", "value": "prevent loss of consciousness"},
      {"measurement": "Outcome of tilt test", "setting": "[3]; patient with VVS", "value": "experienced only presyncope"},
      {"measurement": "SBP after capsaicin alone", "setting": "[3]; patient with VVS, at onset of prodromes, from 100 mmHg", "value": 120, "unit": "mmHg"},
      {"measurement": "Ratio of the highest blood level detected to EC50", "setting": "clinical", "value": "[…]"},
      {"measurement": "Time of peak Capsaicin blood level", "setting": "clinical", "value": "around 15 minutes"},
      {"measurement": "EC50", "setting": "VR1receptor", "value": "[…]"}
    ]},
    {"compound": "CCNCC(O)c1cccc(O)c1", "note": "(centres unmarked) [etilefrine]", "values": [
      {"measurement": "Cases in which impending VVS was aborted", "setting": "impending VVS; intravenous injection, 20% with placebo", "value": 87, "unit": "%"},
      {"measurement": "Time to effect", "setting": "impending VVS; mostly", "value": "≤ 20", "unit": "s"}
    ]},
    {"compound": "Cn1c(=O)c2c(ncn2C)n(C)c1=O", "note": "[Caffeine]", "values": [
      {"measurement": "Start of increase in caffeine blood concentration", "setting": "[4]", "value": 30, "unit": "s"},
      {"measurement": "Speculated contribution of Caffeine to SBP elevation", "setting": "normal, healthy adults", "value": "1-2 mmHg"},
      {"measurement": "RR of occurrence of VVRs versus placebo", "setting": "blood donors", "value": 0.42},
      {"measurement": "Affinity", "setting": "A2 adenosine receptor", "value": 9, "unit": "µM"},
      {"measurement": "Increase in SBP", "setting": "[5]; within 30 minutes", "value": "3-14 mmHg"},
      {"measurement": "Time of maximal increase in SBP", "setting": "[5]", "value": "60 to 120", "unit": "min"}
    ]}
  ]
}
